Results as given in patent publication EP4574151A1, “INHIBITORS OF G12V-MUTATED RAS PROTEIN TO TREAT CANCER” (Personather Spolka Z Ograniczona Odpowiedzialnoscia, priority 2023, dated 2025).

How the values were obtained:
[1] = system: NCI-H1975; assay: Toxicity against cancer cells expressing wild type RAS; assay type: cell-based; conditions: summary statement
Protocol: The results of in vitro analyses were presented in the examples. Commercially available cancer cell lines were used for the studies, including SW480, SW620, and COR-L23, showing endogenous expression of KRASG12V, as well as a cell line with exogenously introduced KRASG12V mutation (using methods of genetic engineering) - the DK-MGEGFRvIIIKRASG12V line. Additionally, the cancer cell line NCI- H1975, characterized by the expression of wild type RASWT proteins, was also analyzed.

[2] = system: SW620 cells (with RASG12V mutation); assay: Crystal violet cytotoxicity test (IC50) in KRASG12V positive cells; assay type: cell-based; conditions: summary statement
Excerpt: IC50 (half-maximal inhibitory concentration) is the concentration value of a tested compound which inhibits biochemical and biological functions of cells in half of the tested population. Determining this indicator is extremely important for assessing the cytotoxicity of molecules with therapeutic potential.
The first step in developing the methodology for determining IC50 was to conduct density tests to determine the appropriate number of cells to use in cytotoxicity tests. The different content of bovine fetal serum in the culture medium was also investigated to rule out any potential impact on the reduction in cell count, regardless of the analyzed molecules.
(§1) As a research model, colon cancer and lung cancer cell lines (sensitive lines) were used, including SW620, SW480, and COR-L23, respectively, which are characterized by the KRASG12V gene mutation and lack of other alterations in genes belonging to the RAS protein signaling pathway, as well as a stable line of normal cells (mouse fibroblasts), which serve as a platform for evaluating the impact of tested compounds on non-cancer cells. Below is the result for one of the analyzed cell lines with the mutation. Similar differences in IC50 values compared to normal cells were obtained for the other cell lines mentioned above with the RASG12V mutation.
(§2) The effect of molecules on the biology of selected cell lines to assess their cytotoxicity using the IC50 indicator was carried out according to the protocol below: • 1. The cells of the tested lines were seeded in wells of a 96-well plate at specified densities. • 2. After seeding, the cells were subjected to a 24-hour incubation in medium with a 1% and 2.5% addition of serum (sensitive lines) or in medium with a 0.5% addition of serum (normal line). • 3. The cells were exposed to selected molecules at selected concentrations. The control was provided by the culture medium without any added compounds. Concentrations of the tested molecules [uM]: • □ NIH3T3: 500; 250; 125; 62,5; 31,25 • □ SW620: 60; 30; 15; 7,5; 3,75 • 4. After 72 hours of incubation, the culture medium was removed and the cells were washed twice with buffer saline solution (PBS). Then, the cells were incubated for 10 minutes with a 0.1% solution of crystal violet at room temperature (Merck Millipore). • 5. After 10 minutes, the crystal violet solution was removed and the wells of the 96-well plate were washed twice with PBS solution. • 4. 50% ice-cold acetic acid solution was added to each well and incubated again for 10 minutes at room temperature on a shaker at 650 rpm. • 5. Absorbance measurement was performed using a plate reader, at a wavelength of λ = 540 nm

[3] = system: BALB/c mice; assay: Acute toxicity after oral administration (Acute Toxicity test TG425); assay type: in vivo; conditions: female BALB/c mice, oral by gastric probe, 40 mg of substance in corn oil, three mice, observed two weeks
Excerpt: The study was planned according to Acute Toxicity Test 425 (oral administration) - higher-lower-dose procedure, in accordance with the OECD regulation of October 3, 2008. The test procedure described in these guidelines is useful in minimizing the number of animals needed to estimate the acute toxicity after oral administration of potential drugs. In addition to the LD50 assessment and confidence intervals, the test allows for the observation of signs of toxicity. For this purpose, an experiment was agreed upon with the Local Ethics Committee for Animal Experimentation, using BALB/c mice. The TG425 method allows for the estimation of LD50 values with confidence intervals, and the results allow for the classification of substances according to the global harmonized system for the classification of chemicals that cause acute toxicity.
A sequential test, utilizing a maximum of 5 animals, was applied, which is known as the limit test. A test dose of either 2000 or uniquely 5000 mg/kg can be used. The testing procedures at 2000 and 5000 mg/kg differ slightly (see Sections 23-25 for the limit test at 2000 mg/kg and Sections 26-30 for the limit test at 5000 mg/kg). The selection of a sequential testing plan increases the statistical power, and a deliberate deviation from the limit test rejection procedure was made for compounds with an LD50 near the limit dose; i.e. committing an error on the side of caution. As with any limit test protocol, the probability of correct compound classification will decrease, as the actual LD50 value more closely resembles the limit dose.
• 1. Female Balb/c mice, which were 50-56 days postpartum, were used for the purposes of this experiment. • 2. Mice underwent a 1-week quarantine after being transported to the laboratory. • 3. The studied molecules (PER154A, PER160A, PER170A, PER176A) were suspended according to the TG425 protocol, i.e. 40 mg of substance in […] of laboratory corn oil and orally administered through a plastic gastro probe (used: 20ga (0.9 mm OD x 0.5 mm ID), 38 mm), which was suitable for the size of the animal (17-21 g). The mice were observed and weighed almost daily. • 4. Mouse housing conditions: up to 4 mice per cage; temperature: 23.2 - 23.40°C; humidity: 27.6 - 40.9% relative humidity. • 5. Two weeks later (time counted separately for each mouse), a resection was performed to analyze internal organs for any abnormalities.

[4] = system: NIH/3T3 cell line - immortalized mouse fibroblasts; assay: Crystal violet cytotoxicity test in normal cells; assay type: cell-based; conditions: summary statement; normal cells NIH/3T3 and PER49
Excerpt: To evaluate the toxicity of the tested compound on normal cells, the NIH/3T3 cell line - immortalized mouse fibroblasts and normal pericytes (PER49) were used.
as §1, §2

Row | SMILES | toxicity against cancer cells expressing normal RAS protein [1] | toxicity against cancer cells expressing KRASG12V [2] | safety in acute oral toxicity test [3] | toxicity against normal cells [4]
1 | O=C(Nc1ccc(Br)c(Cl)c1)c1ccc2c(c1)C1C3CCC(C3)C1C(c1ccccc1)N2 (centres unmarked) [PER176A] | no toxicity | toxicity | safe for mice | no toxicity
2 | Cc1ccc(NC(=O)c2ccc3c(c2)C2C4CCC(C4)C2C(c2ccccc2)N3)cc1C (centres unmarked) [PER170A] | no toxicity | toxicity | safe for mice | no toxicity
